Measured values reported in PubChem BioAssay (NCI).
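Interpolation was linear, between the two tested concentrations surrounding the appropriate level; five concentrations were tested over 48 hours in 96-well plates. Abbreviation: GI50, concentration required for 50% inhibition of growth. At the TGI there is no net growth.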

Tests used:
Experiment in all cases: NCI anticancer screen, dose series, 48 h
[1] = test system: CAKI-1 renal
[2] = test system: HCC-2998 colon
[3] = test system: HCT-116 colon
[4] = test system: M14 melanoma
[5] = test system: MCF7 breast
[6] = test system: NCI-H226 lung
[7] = test system: RPMI-8226 leukemia
[8] = test system: SF-268 CNS
[9] = test system: U251 CNS
[10] = test system: UACC-257 melanoma

Row | Compound | GI50 [1] | TGI [1] | GI50 [2] | TGI [2] | GI50 [3] | TGI [3] | GI50 [4] | TGI [4] | GI50 [5] | GI50 [6] | TGI [6] | GI50 [7] | TGI [7] | GI50 [8] | TGI [8] | GI50 [9] | TGI [9] | GI50 [10] | TGI [10] | TGI [5]
1 | CCCNC(=S)N/N=C(\C)c1ccccn1 | 0.22 µM | > 80.7 µM | 0.523 µM | > 100 µM | < 0.01 µM | > 100 µM | 0.0681 µM | 3.65 µM | < 0.01 µM | 0.291 µM | 4.79 µM | 0.0268 µM | > 100 µM | 0.226 µM | > 51.1 µM | 0.0497 µM | > 100 µM | 0.038 µM | 1.38 µM | –
2 | CCCCNC(=O)NS(=O)(=O)c1ccc(N2N=C(c3ccc(C)cc3C)CC2c2ccc(N(C)C)cc2)cc1 (centres undefined) | 3.38 µM | > 100 µM | 2.25 µM | 5.1 µM | 3.86 µM | > 100 µM | 4.06 µM | > 100 µM | 2.63 µM | 4.54 µM | 21.8 µM | 2.99 µM | 9.66 µM | 5.73 µM | > 100 µM | 3.59 µM | 27.6 µM | 4.04 µM | > 100 µM | > 100 µM
3 | O=C(O)C(Sc1ccc(Cl)cc1)Sc1ccc(Cl)cc1 | – | > 100 µM | – | 69.1 µM | – | > 100 µM | – | > 100 µM | – | – | > 100 µM | – | > 100 µM | – | > 100 µM | – | > 100 µM | – | > 100 µM | > 100 µM
4 | O=C(C[C@@H](C(=O)NCc1cccc(C(F)(F)F)c1)N1C(=O)[C@@H](N2C(=O)OC[C@@H]2c2ccccc2)[C@H]1/C=C/c1ccccc1)NC1CCN(Cc2ccccc2)CC1 | 14 µM | 34.4 µM | 6.2 µM | 21.2 µM | 1.95 µM | 4.04 µM | 4.58 µM | 20.4 µM | 1.61 µM | 48.2 µM | > 100 µM | 2.22 µM | 5.31 µM | 3.81 µM | 21.4 µM | 4.58 µM | 17.2 µM | 17.2 µM | 33.8 µM | 3.51 µM
5 | Nc1nccc(-c2c(-c3ccc(F)cc3)ncn2CCCN2CCOCC2)n1 | > 25 µM | > 25 µM | > 25 µM | > 25 µM | > 25 µM | > 25 µM | > 25 µM | > 25 µM | > 21.6 µM | > 25 µM | > 25 µM | > 25 µM | > 25 µM | > 25 µM | > 25 µM | > 25 µM | > 25 µM | > 25 µM | > 25 µM | > 25 µM
6 | COc1cc2c(/C=C3/C(=O)Nc4cccc(Cl)c43)c(Cl)n(Cc3ccccc3)c2cc1C | 2.46 µM | 31.4 µM | 3.1 µM | 8.99 µM | 4.19 µM | 55.6 µM | 4.79 µM | > 40.5 µM | 3.88 µM | 1.78 µM | 11.1 µM | 4.21 µM | > 23.6 µM | 13.1 µM | > 71.5 µM | 2.46 µM | 20.6 µM | 10.4 µM | > 78.8 µM | > 45.3 µM
